According to ChEMBL document CHEMBL1275482, “Point mutation in the group B streptococcal pbp2x gene conferring decreased susceptibility to beta-lactam antibiotics” (2008):
In brackets after ≈: the same amount, converted by molar mass.

Experiments:
[1] = system: Streptococcus sp. 'group B'; assay: Antimicrobial activity against group B Streptococcus sp. 'group B' serotype IA isolate 3047-05 by broth dilution method; assay type: functional
[2] = system: Streptococcus sp. 'group B'; assay: Antimicrobial activity against group B Streptococcus sp. 'group B' serotype IA isolate 5662-05 by broth dilution method; assay type: functional
[3] = system: Streptococcus sp. 'group B'; assay: Antimicrobial activity against group B Streptococcus sp. 'group B' serotype IA isolate 6649-05 by broth dilution method; assay type: functional
[4] = system: Streptococcus sp. 'group B'; assay: Antimicrobial activity against group B Streptococcus sp. 'group B' serotype IA isolate 7490-03 by broth dilution method; assay type: functional
[5] = system: Streptococcus sp. 'group B'; assay: Antimicrobial activity against group B Streptococcus sp. 'group B' serotype IA isolate 9012-04 by broth dilution method; assay type: functional
[6] = system: Streptococcus sp. 'group B'; assay: Antimicrobial activity against group B Streptococcus sp. 'group B' serotype IB isolate 5436-03 by broth dilution method; assay type: functional
[7] = system: Streptococcus sp. 'group B'; assay: Antimicrobial activity against group B Streptococcus sp. 'group B' serotype II isolate 3776-04 by broth dilution method; assay type: functional
[8] = system: Streptococcus sp. 'group B'; assay: Antimicrobial activity against group B Streptococcus sp. 'group B' serotype II isolate 9051-04 by broth dilution method; assay type: functional
[9] = system: Streptococcus sp. 'group B'; assay: Antimicrobial activity against group B Streptococcus sp. 'group B' serotype III isolate 3444-99 by broth dilution method; assay type: functional
[10] = system: Streptococcus sp. 'group B'; assay: Antimicrobial activity against group B Streptococcus sp. 'group B' serotype III isolate 7037-99 by broth dilution method; assay type: functional
[11] = system: Streptococcus sp. 'group B'; assay: Antimicrobial activity against group B Streptococcus sp. 'group B' serotype III isolate 3789-04 expressing pbp2x Q557E mutant and multilocus sequence type ST19 by broth dilution method; assay type: functional
[12] = system: Streptococcus sp. 'group B'; assay: Antimicrobial activity against group B Streptococcus sp. 'group B' serotype III isolate 6138-03 expressing pbp2x Q557E mutant and multilocus sequence type ST19 by broth dilution method; assay type: functional
[13] = system: Streptococcus sp. 'group B'; assay: Antimicrobial activity against group B Streptococcus sp. 'group B' serotype III isolate 7507-03 expressing pbp2x Q557E mutant and multilocus sequence type ST19 by broth dilution method; assay type: functional
[14] = system: Streptococcus sp. 'group B'; assay: Antimicrobial activity against group B Streptococcus sp. 'group B' serotype III isolate 8607-03 expressing pbp2x Q557E mutant and multilocus sequence type ST19 by broth dilution method; assay type: functional
[15] = system: Streptococcus sp. 'group B'; assay: Antimicrobial activity against group B Streptococcus sp. 'group B' serotype IV isolate 3454-03 by broth dilution method; assay type: functional
[16] = system: Streptococcus sp. 'group B'; assay: Antimicrobial activity against group B Streptococcus sp. 'group B' isolate 4214-03 by broth dilution method; assay type: functional
[17] = system: Streptococcus sp. 'group B'; assay: Antimicrobial activity against group B Streptococcus sp. 'group B' isolate 6149-03 by broth dilution method; assay type: functional
[18] = system: Streptococcus sp. 'group B'; assay: Antimicrobial activity against group B Streptococcus sp. 'group B' isolate 7368-04 by broth dilution method; assay type: functional
[19] = system: Streptococcus sp. 'group B'; assay: Antimicrobial activity against group B Streptococcus sp. 'group B' serotype V isolate 3386-05 by broth dilution method; assay type: functional
[20] = system: Streptococcus sp. 'group B'; assay: Antimicrobial activity against group B Streptococcus sp. 'group B' serotype V isolate 4857-03 by broth dilution method; assay type: functional
[21] = system: Streptococcus sp. 'group B'; assay: Antimicrobial activity against group B Streptococcus sp. 'group B' serotype V isolate 5677-04 by broth dilution method; assay type: functional
[22] = system: Streptococcus sp. 'group B'; assay: Antimicrobial activity against group B Streptococcus sp. 'group B' serotype V isolate 9171-03 by broth dilution method; assay type: functional
[23] = system: Streptococcus sp. 'group B'; assay: Antimicrobial activity against group B Streptococcus sp. 'group B' serotype III isolate 8607-03 expressing pbp2x Q557E mutant and harboring empty vector by broth dilution method; assay type: functional
[24] = system: Streptococcus sp. 'group B'; assay: Antimicrobial activity against group B Streptococcus sp. 'group B' serotype III isolate 8607-03 expressing pbp2x Q557E mutant and harboring plasmid expressing wild-type pbp2x by broth dilution method; assay type: functional
[25] = system: Streptococcus sp. 'group B'; assay: Antimicrobial activity against group B Streptococcus sp. 'group B' serotype III isolate 8607 with chromosomal pbp2x(Q557E) replaced by wild-type pbp2x through allelic exchange by broth dilution method

Compound | MIC [1] [mg/L] | MIC [2] [mg/L] | MIC [4] [mg/L] | MIC [5] [mg/L] | MIC [6] [mg/L] | MIC [7] [mg/L] | MIC [8] [mg/L] | MIC [9] [mg/L] | MIC [10] [mg/L] | MIC [11] [mg/L] | MIC [12] [mg/L] | MIC [13] [mg/L] | MIC [14] [mg/L] | MIC [15] [mg/L] | MIC [16] [mg/L] | MIC [17] [mg/L] | MIC [18] [mg/L] | MIC [20] [mg/L] | MIC [21] [mg/L] | MIC [22] [mg/L] | further results
CO/N=C(\C(=O)N[C@@H]1C(=O)N2C(C(=O)O)=C(COC(C)=O)CS[C@H]12)c1csc(N)n1 [CEFOTAXIME] | 0.06 (≈ 0.132 µM) | 0.06 (≈ 0.132 µM) | 0.12 (≈ 0.263 µM) | 0.06 (≈ 0.132 µM) | 0.25 (≈ 0.549 µM) | 0.12 (≈ 0.263 µM) | 0.06 (≈ 0.132 µM) | 0.06 (≈ 0.132 µM) | 0.12 (≈ 0.263 µM) | 0.25 (≈ 0.549 µM) | 0.25 (≈ 0.549 µM) | 0.12 (≈ 0.263 µM) | 0.25 (≈ 0.549 µM) | 0.25 (≈ 0.549 µM) | 0.12 (≈ 0.263 µM) | 0.06 (≈ 0.132 µM) | 0.06 (≈ 0.132 µM) | 0.06 (≈ 0.132 µM) | 0.12 (≈ 0.263 µM) | 0.12 (≈ 0.263 µM) | MIC [3]: 0.12 mg/L (≈ 0.263 µM); MIC [19]: 0.06 mg/L (≈ 0.132 µM); MIC [23]: 0.25 mg/L (≈ 0.549 µM); MIC [24]: 0.015 mg/L (≈ 0.0329 µM); MIC [25]: 0.03 mg/L (≈ 0.0659 µM)
CC1(C)S[C@@H]2[C@H](NC(=O)[C@H](N)c3ccccc3)C(=O)N2[C@H]1C(=O)O [AMPICILLIN] | 0.12 (≈ 0.343 µM) | 0.12 (≈ 0.343 µM) | 0.12 (≈ 0.343 µM) | 0.06 (≈ 0.172 µM) | 0.06 (≈ 0.172 µM) | 0.25 (≈ 0.715 µM) | 0.12 (≈ 0.343 µM) | 0.12 (≈ 0.343 µM) | 0.12 (≈ 0.343 µM) | 0.12 (≈ 0.343 µM) | 0.06 (≈ 0.172 µM) | 0.12 (≈ 0.343 µM) | 0.06 (≈ 0.172 µM) | 0.25 (≈ 0.715 µM) | 0.25 (≈ 0.715 µM) | 0.12 (≈ 0.343 µM) | 0.12 (≈ 0.343 µM) | 0.25 (≈ 0.715 µM) | 0.25 (≈ 0.715 µM) | 0.12 (≈ 0.343 µM) | MIC [3]: 0.25 mg/L (≈ 0.715 µM); MIC [19]: 0.06 mg/L (≈ 0.172 µM); MIC [23]: 0.06 mg/L (≈ 0.172 µM); MIC [24]: 0.06 mg/L (≈ 0.172 µM); MIC [25]: 0.06 mg/L (≈ 0.172 µM)
CC1(C)S[C@@H]2[C@H](NC(=O)Cc3ccccc3)C(=O)N2[C@H]1C(=O)O [PENICILLIN G] | 0.06 (≈ 0.179 µM) | 0.06 (≈ 0.179 µM) | 0.06 (≈ 0.179 µM) | 0.06 (≈ 0.179 µM) | 0.03 (≈ 0.0897 µM) | 0.12 (≈ 0.359 µM) | 0.06 (≈ 0.179 µM) | 0.06 (≈ 0.179 µM) | 0.06 (≈ 0.179 µM) | 0.12 (≈ 0.359 µM) | 0.12 (≈ 0.359 µM) | 0.12 (≈ 0.359 µM) | 0.12 (≈ 0.359 µM) | 0.12 (≈ 0.359 µM) | 0.12 (≈ 0.359 µM) | 0.06 (≈ 0.179 µM) | 0.12 (≈ 0.359 µM) | 0.12 (≈ 0.359 µM) | 0.12 (≈ 0.359 µM) | 0.06 (≈ 0.179 µM) | MIC [3]: 0.12 mg/L (≈ 0.359 µM); MIC [19]: 0.03 mg/L (≈ 0.0897 µM); MIC [23]: 0.12 mg/L (≈ 0.359 µM); MIC [24]: 0.015 mg/L (≈ 0.0449 µM); MIC [25]: 0.015 mg/L (≈ 0.0449 µM)
CO[C@@]1(NC(=O)Cc2cccs2)C(=O)N2C(C(=O)O)=C(COC(N)=O)CS[C@@H]21 [CEFOXITIN] | 8 (≈ 18.7 µM) | 8 (≈ 18.7 µM) | 2 (≈ 4.68 µM) | 16 (≈ 37.4 µM) | 16 (≈ 37.4 µM) | 8 (≈ 18.7 µM) | 8 (≈ 18.7 µM) | 8 (≈ 18.7 µM) | 8 (≈ 18.7 µM) | 16 (≈ 37.4 µM) | 16 (≈ 37.4 µM) | 16 (≈ 37.4 µM) | 16 (≈ 37.4 µM) | 8 (≈ 18.7 µM) | 4 (≈ 9.36 µM) | 8 (≈ 18.7 µM) | 4 (≈ 9.36 µM) | 4 (≈ 9.36 µM) | 16 (≈ 37.4 µM) | 4 (≈ 9.36 µM) | MIC [3]: 4 mg/L (≈ 9.36 µM); MIC [19]: 16 mg/L (≈ 37.4 µM); MIC [23]: 16 mg/L (≈ 37.4 µM); MIC [24]: 2 mg/L (≈ 4.68 µM); MIC [25]: 2 mg/L (≈ 4.68 µM)
Cc1nnc(SCC2=C(C(=O)O)N3C(=O)[C@@H](NC(=O)Cn4cnnn4)[C@H]3SC2)s1 [CEFAZOLIN] | 0.25 (≈ 0.55 µM) | 0.25 (≈ 0.55 µM) | 0.25 (≈ 0.55 µM) | 0.25 (≈ 0.55 µM) | 1 (≈ 2.2 µM) | 0.25 (≈ 0.55 µM) | 0.25 (≈ 0.55 µM) | 0.25 (≈ 0.55 µM) | 0.25 (≈ 0.55 µM) | 1 (≈ 2.2 µM) | 0.5 (≈ 1.1 µM) | 0.5 (≈ 1.1 µM) | 0.5 (≈ 1.1 µM) | 0.5 (≈ 1.1 µM) | 0.5 (≈ 1.1 µM) | 0.25 (≈ 0.55 µM) | 0.5 (≈ 1.1 µM) | 0.5 (≈ 1.1 µM) | 1 (≈ 2.2 µM) | 0.25 (≈ 0.55 µM) | MIC [3]: 0.5 mg/L (≈ 1.1 µM); MIC [19]: 0.12 mg/L (≈ 0.264 µM); MIC [23]: 16 mg/L (≈ 35.2 µM); MIC [24]: 2 mg/L (≈ 4.4 µM); MIC [25]: 2 mg/L (≈ 4.4 µM)
CO/N=C(\C(=O)N[C@@H]1C(=O)N2C(C(=O)O)=C(COC(N)=O)CS[C@H]12)c1ccco1 [CEFUROXIME] | 0.06 (≈ 0.141 µM) | 0.03 (≈ 0.0707 µM) | 0.06 (≈ 0.141 µM) | 0.06 (≈ 0.141 µM) | 0.25 (≈ 0.589 µM) | 0.12 (≈ 0.283 µM) | 0.06 (≈ 0.141 µM) | 0.06 (≈ 0.141 µM) | 0.06 (≈ 0.141 µM) | 0.12 (≈ 0.283 µM) | 0.25 (≈ 0.589 µM) | 0.12 (≈ 0.283 µM) | 0.12 (≈ 0.283 µM) | 0.06 (≈ 0.141 µM) | 0.12 (≈ 0.283 µM) | 0.06 (≈ 0.141 µM) | 0.06 (≈ 0.141 µM) | 0.06 (≈ 0.141 µM) | 0.12 (≈ 0.283 µM) | 0.06 (≈ 0.141 µM) | MIC [23]: 0.5 mg/L (≈ 1.18 µM); MIC [24]: 0.06 mg/L (≈ 0.141 µM); MIC [25]: 0.06 mg/L (≈ 0.141 µM)
